Publication PMC9399069, “Imaging PARP with [^18F]rucaparib in pancreatic cancer models” (European Journal of Nuclear Medicine and Molecular Imaging, 2022)

Columns and labels:
Assay type in all cases: cell-based, human
[1] = test system: AsPC1 cells; assay: Protein expression by flow cytometry after PARP inhibitors or DNA-damaging reagents, AsPC1 cells; conditions: 3 h
Procedure: (§1) Relative expression of PARP1, 2 and 3, ALDH2 and IMPDH2 was determined by flow cytometry. Cells (1 × 10^6 cells/well) were seeded in 96-well plates in growth medium, washed with FACS buffer (PBS, 2% FBS, 1 mM EDTA, 0.1% NaN3) and centrifuged at 500×g for 5 min. Immunostaining was performed using the Foxp3/transcription factor staining buffer set (eBioscience^TM, USA). Intracellular staining was conducted in permeabilisation buffer for 30 min at 4 °C in the dark using the following antibodies: AF488-conjugated anti-PARP-1 (1:100; sc-80070), AF594-conjugated anti-PARP-2 (1:100; sc-393310), anti-PARP-3 (1:100; sc-390771) or anti-PARP-tankyrase-1/2 (1:100; sc-365897) from Santa Cruz Biotechnology Inc. (USA), AF488-conjugated anti-IMPDH2 (1:500; ab-200770) from Abcam plc. (UK) and AF488-conjugated anti-ALDH2 (1:100, ABIN6817568) from Antibodies-online GmbH (UK). Fixable viability dye ef780 (1:4000; eBioscience^TM; 65-0865-14) was used for live and dead cells discrimination. Fixation of immunostained cells was performed for 15 min at room temperature. Flow cytometry was conducted on the CytoFLEX benchtop flow cytometer (Beckman Coulter, USA), with appropriate lasers and filters, positive and negative controls. Data were analysed using FlowJo^TM (Tree Star Inc., BD Biosciences, USA).
(§2) AsPC1 (1 × 10^5 cells/well) and PSN1 cells (7.5 × 10^4 cells/well) were exposed to methyl methanesulfonate (MMS) or temozolomide (TMZ) (100 μM, in a total of 270 μL growth medium) for 3 h at 37 °C. Additionally, [^18F]rucaparib (500 kBq, 3.6 GBq/μmol; [^TotalF]rucaparib final concentration: 301 nM) or [^18F]olaparib (400 kBq, 8.5 GBq/μmol; [^TotalF]olaparib final concentration: 300 nM) was added, and the cells were incubated at 37 °C for 30 min. Cell culture medium was removed, and cells were washed with PBS. For cell retention, fresh medium (300 μL) was added to the cells. Cells were then further incubated at 37°C for 3 h. Cell culture medium was removed, and the amount of ^18F in the cell lysates was measured as above. Protein expression of the cells after DNA-damaging treatments (or PARP inhibitors 10 μM) was performed using flow cytometry as above.

[2] = test system: PSN1 cells; assay: Protein expression by flow cytometry after PARP inhibitors or DNA-damaging reagents, PSN1 cells; conditions: 3 h
Procedure: as §1, §2

[3] = test system: AsPC1 cells; assay: Uptake and retention of radiolabelled PARP inhibitors in AsPC1 cells treated with DNA-damaging reagents; conditions: 100 μM, 3 h, retention at 3 h
Procedure: as §2

[4] = test system: PSN1 cells; assay: Uptake and retention of radiolabelled PARP inhibitors in PSN1 cells treated with DNA-damaging reagents; conditions: 100 μM, 3 h, retention at 3 h
Procedure: as §2

Row | SMILES | PARP1 expression (MFI) after exposure of PARP inhibitors ([1]; 10 μM, flow cytometry) | PARP1 expression (MFI) after exposure of PARP inhibitors ([2]; 10 μM, flow cytometry) | Cell association and retention of [TotalF]rucaparib and [TotalF]olaparib after exposure to DNA-damaging reagent [3] | Upregulation of PARP proteins ([1]; 100 μM, flow cytometry) | γH2AX expression ([1]; 100 μM, not statistically significant in AsPC1 cells) | Cell association and retention of [TotalF]rucaparib and [TotalF]olaparib after exposure to DNA-damaging reagent [4] | γH2AX expression ([2]; 100 μM) | Upregulation of PARP proteins ([2]; 100 μM, flow cytometry)
1 | Cn1ncnc1[C@H]1c2n[nH]c(=O)c3cc(F)cc(c23)N[C@@H]1c1ccc(F)cc1 [talazoparib] | upregulated | upregulated | – | – | – | – | – | –
2 | COS(C)(=O)=O [MMS, methyl methanesulfonate] | – | – | increased | < 10% | increasing trend | increased | increasing trend | < 10%
